Assay results: patent US20230140290A1, “SALICYLAMIDE DERIVATIVES AND RELATED METHODS OF MAKING” (THE BOARD OF REGENTS OF THE UNIVERSITY OF TEXAS SY, priority 2020, published 2023)

Assays:
A549 cells = assay: Cytotoxicity assay (AlamarBlue); details: read-out: CC50 (μM), cytotoxic concentration 50%; A549 cell line, 48 h
Procedure: Cytotoxicity Assay. The cytotoxicity of the compounds was analyzed by commercial kit AlamarBlue® (Invitrogen, Ref. DAL1025). A549 cells at a density of 5×10^3 cells per well in 96-well plates were seeded. […] Cells were then incubated at 37° C. for 48 h following the kit protocol. The cytotoxic concentration 50 (CC50) value was obtained using the statistical package GraphPad Prism. This assay was performed in duplicate.

HAdV5-GFP = assay: Plaque assay (inhibition of HAdV plaque formation); format: cell-based, HAdV-5; details: for Selectivity index (SI): ratio of CC50 to IC50 in plaque assay; for inhibition at 10 µM: read-out: Plaque Assay (%) Inhibition (10 μM); for IC50: read-out: Plaque Assay IC50 (μM), HAdV5-GFP, low MOI, 293β5 cell line
Procedure: Plaque Assay. […] When cells reached 80-90% confluency, they were infected with HAdV5-GFP (0.06 vp/cell) and rocked for 2 h at 37° C. After the incubation the inoculum was removed, and the cells were washed once with PBS.
Plaque Assay. Compounds were tested using low MOI infections (0.06 vp/cell) and at concentrations of 10 μM and in a dose-response assay ranging from 10 to 0.3 μM in a plaque assay. […] When cells reached 80-90% confluency, they were infected with HAdV5-GFP (0.06 vp/cell) and rocked for 2 h at 37° C. After the incubation the inoculum was removed, and the cells were washed once with PBS. […] The mixture also contained the compounds in concentrations ranging from 10 to 0.3 μM.

Structure (SMILES) | CC50 (A549 cells) | Selectivity index (SI) (HAdV5-GFP) | inhibition at 10 µM (HAdV5-GFP) | IC50 (HAdV5-GFP) | Plaque Assay (%) Inhibition (10 μM) (HAdV5-GFP)
O=C(Nc1ccc(NCC2CC2)cc1Cl)c1cc(Cl)ccc1O [Compound 85, 5-Chloro-N-(2-chloro-4-((cyclopropylmethyl)amino)phenyl)-2-hydroxybenzamide] | 14.4 µM | 10.4 | 100% | 1.38 µM | –
O=C(Nc1ccc(NCC2CCCC2)cc1Cl)c1cc(Cl)ccc1O [Compound 86, 5-Chloro-N-(2-chloro-4-((cyclopentylmethyl)amino)phenyl)-2-hydroxybenzamide] | 21.5 µM | 17.3 | 100% | 1.24 µM | –
O=C(Nc1ccc(NC2CCCCC2)cc1Cl)c1cc(Cl)ccc1O [Compound 88, 5-Chloro-N-(2-chloro-4-(cyclohexylamino)phenyl)-2-hydroxybenzamide] | 68.3 µM | 51.1 | 99.5 ± 0.7% | 1.34 µM | –
CN(C)c1ccc(NC(=O)c2cc(Cl)ccc2O)c(Cl)c1 [Compound 89, 5-Chloro-N-(2-chloro-4-(dimethylamino)phenyl)-2-hydroxybenzamide] | 85.1 ± 11.9 µM | 44.3 | 100% | 1.92 ± 0.23 µM | –
CCN(CC)c1ccc(NC(=O)c2cc(Cl)ccc2O)c(Cl)c1 [Compound 90, 5-Chloro-N-(2-chloro-4-(diethylamino)phenyl)-2-hydroxybenzamide] | 55.5 ± 10.2 µM | 64.5 | 100% | 0.86 ± 0.19 µM | –
CCCN(CCC)c1ccc(NC(=O)c2cc(Cl)ccc2O)c(Cl)c1 [Compound 91, 5-Chloro-N-(2-chloro-4-(dipropylamino)phenyl)-2-hydroxybenzamide] | 10.7 ± 2.1 µM | 16.0 | 100% | 0.67 ± 0.03 µM | –
O=C(Nc1ccc(N(CC2CC2)CC2CC2)cc1Cl)c1cc(Cl)ccc1O [Compound 92, N-(4-(Bis(cyclopropylmethyl)amino)-2-chlorophenyl)-5-chloro-2-hydroxybenzamide] | 12.8 ± 4.2 µM | 20.7 | 100% | 0.62 ± 0.01 µM | –
CC1(ON(c2ccc(NC(=O)c3cc(Cl)ccc3O)c(Cl)c2)C2(C)CCCC2)CCCC1 [Compound 93, 5-Chloro-N-(2-chloro-4-((1-methylcyclopentyl)((1-methylcyclopentyl)oxy)amino)phenyl)-2-hydroxybenzamide] | 18 µM | 24.3 | 100% | 0.74 µM | –
O=C(Nc1ccc(NCc2ccccc2)cc1Cl)c1cc(Cl)ccc1O [Compound 94, N-(4-(Benzylamino)-2-chlorophenyl)-5-chloro-2-hydroxybenzamide] | 19.7 ± 2.8 µM | 7.8 | 100% | 2.52 ± 0.01 µM | –
O=C(Nc1ccc(NCc2ccc(F)cc2)cc1Cl)c1cc(Cl)ccc1O [Compound 95, 5-Chloro-N-(2-chloro-4-((4-fluorobenzyl)amino)phenyl)-2-hydroxybenzamide] | 54.4 ± 12.3 µM | 16.0 | 100% | 3.4 ± 0.54 µM | –
O=C(Nc1ccc(NCc2ccc(Cl)cc2)cc1Cl)c1cc(Cl)ccc1O [Compound 96, 5-Chloro-N-(2-chloro-4-((4-chlorobenzyl)amino)phenyl)-2-hydroxybenzamide] | 59.7 ± 0.3 µM | 49.7 | 100% | 1.2 ± 0.01 µM | –
O=C(Nc1ccc(NCc2ccc(Br)cc2)cc1Cl)c1cc(Cl)ccc1O [Compound 97, N-(4-((4-Bromobenzyl)amino)-2-chlorophenyl)-5-chloro-2-hydroxybenzamide] | 40.9 ± 2.2 µM | 22.2 | 100% | 1.84 ± 0.1 µM | –
O=C(Nc1ccc(NCc2ccc(C(F)(F)F)cc2)cc1Cl)c1cc(Cl)ccc1O [Compound 98, 5-Chloro-N-(2-chloro-4-((4-(trifluoromethyl)benzyl)amino)phenyl)-2-hydroxybenzamide] | 62.7 ± 6.1 µM | 43.8 | 99.6 ± 0.6% | 1.43 ± 0.29 µM | –
O=C(Nc1ccc(NCc2cccc(C(F)(F)F)c2)cc1Cl)c1cc(Cl)ccc1O [Compound 99, 5-Chloro-N-(2-chloro-4-((3-(trifluoromethyl)benzyl)amino)phenyl)-2-hydroxybenzamide] | 13.3 ± 6.9 µM | 15.2 | 100% | 0.88 ± 0.4 µM | –
COc1ccc(CNc2ccc(NC(=O)c3cc(Cl)ccc3O)c(Cl)c2)cc1 [Compound 100, 5-Chloro-N-(2-chloro-4-((4-methoxybenzyl)amino)phenyl)-2-hydroxybenzamide] | 80.7 ± 8.2 µM | 22.4 | 100% | 3.61 ± 0.4 µM | –
CN(C)c1ccc(CNc2ccc(NC(=O)c3cc(Cl)ccc3O)c(Cl)c2)cc1 [Compound 102, 5-Chloro-N-(2-chloro-4-((4-(dimethylamino)benzyl)amino)phenyl)-2-hydroxybenzamide] | 24.5 ± 3.5 µM | 9.0 | 100% | 2.73 ± 0.26 µM | –
O=C(Nc1ccc(NCc2cc(F)cc(Cl)c2)cc1Cl)c1cc(Cl)ccc1O [Compound 103, 5-Chloro-N-(2-chloro-4-((3-chloro-5-fluorobenzyl)amino)phenyl)-2-hydroxybenzamide] | 11.1 ± 0.7 µM | 8.7 | 98.8 ± 0.6% | 1.28 ± 0.02 µM | –
O=C(Nc1ccc(NCc2cc(Cl)cc(Cl)c2)cc1Cl)c1cc(Cl)ccc1O [Compound 104, 5-Chloro-N-(2-chloro-4-((3,5-dichlorobenzyl)amino)phenyl)-2-hydroxybenzamide] | 13.3 ± 7.6 µM | 9.3 | 100% | 1.43 ± 0.17 µM | –
O=C(Nc1ccc(NCc2cc(Cl)cc(C(F)(F)F)c2)cc1Cl)c1cc(Cl)ccc1O [Compound 105, 5-Chloro-N-(2-chloro-4-((3-chloro-5-(trifluoromethyl)benzyl)amino)phenyl)-2-hydroxybenzamide] | 30.9 ± 0.8 µM | 17.3 | 99.3 ± 1% | 1.79 ± 0.16 µM | –
O=C(Nc1ccc(NCc2cc(F)cc(C(F)(F)F)c2)cc1Cl)c1cc(Cl)ccc1O [Compound 106, 5-Chloro-N-(2-chloro-4-((3-fluoro-5-(trifluoromethyl)benzyl)amino)phenyl)-2-hydroxybenzamide] | 30.9 ± 4.8 µM | 26.7 | 100% | 1.16 ± 0.13 µM | –
O=C(Nc1ccc(NCc2cc(C(F)(F)F)cc(C(F)(F)F)c2)cc1Cl)c1cc(Cl)ccc1O [Compound 107, N-(4-((3,5-Bis(trifluoromethyl)benzyl)amino)-2-chlorophenyl)-5-chloro-2-hydroxybenzamide] | 92.8 µM | 82.9 | 100% | 1.12 ± 0.49 µM | –
O=C(Nc1ccc(NCc2ccc(Br)s2)cc1Cl)c1cc(Cl)ccc1O [Compound 113, N-(4-(((5-Bromothiophen-2-yl)methyl)amino)-2-chlorophenyl)-5-chloro-2-hydroxybenzamide] | 20.7 ± 4.6 µM | 8.0 | 100% | 2.58 µM | –
O=C(Nc1ccc(NCc2ccc3cn[nH]c3c2)cc1Cl)c1cc(Cl)ccc1O [Compound 114, N-(4-(((1H-Indazol-6-yl)methyl)amino)-2-chlorophenyl)-5-chloro-2-hydroxybenzamide] | 45.3 ± 0.4 µM | 9.7 | 98 ± 0.7% | 4.65 µM | –
O=C(Nc1ccc(NCCCO)cc1Cl)c1cc(Cl)ccc1O [Compound 120, 5-Chloro-N-(2-chloro-4-((3-hydroxypropyl)amino)phenyl)-2-hydroxybenzamide] | 106 µM | – | 36 ± 4.2% | – | inactive
O=C(Nc1ccc(N(CCCO)CCCO)cc1Cl)c1cc(Cl)ccc1O [Compound 121, N-(4-(Bis(3-hydroxypropyl)amino)-2-chlorophenyl)-5-chloro-2-hydroxybenzamide] | 114 ± 9.2 µM | – | 35 ± 7.1% | – | inactive
CC(C)(C)OC(=O)NCCNc1ccc(NC(=O)c2cc(Cl)ccc2O)c(Cl)c1 [Compound 122, tert-Butyl (2-((3-chloro-4-(5-chloro-2-hydroxybenzamido)phenyl)amino)ethyl)carbamate] | 25 ± 5.7 µM | 9.0 | 100% | 2.78 µM | –
CC(C)(C)OC(=O)N1CCC(Nc2ccc(NC(=O)c3cc(Cl)ccc3O)c(Cl)c2)CC1 [Compound 124, tert-Butyl 4-((3-chloro-4-(5-chloro-2-hydroxybenzamido)phenyl)amino)piperidine-1-carboxylate] | 100 µM | 82.6 | 88.9 ± 9% | 1.21 µM | –
Cc1ccc(O)c(C(=O)Nc2ccc(NC3CCCC3)cc2Cl)c1 [Compound 136, N-(2-Chloro-4-(cyclopentylamino)phenyl)-2-hydroxy-5-methylbenzamide] | 30.9 ± 1.6 µM | 11.4 | 99.6 ± 0.5% | 2.72 µM | –
